Experimental data as given in ChEMBL document CHEMBL4028861, “Selective Nonsteroidal Glucocorticoid Receptor Modulators for the Inhaled Treatment of Pulmonary Diseases” (J Med Chem, 2017).

Legend:
Lung [1] = assay: Drug uptake in Wistar Han rat lung at 0.1 umol/kg, administered via intratracheal instillation after 4 hrs by LC-MS/MS analysis; type: ADME, tissue-based; details: in vivo, inhaled_or_intranasal
[2] = Clearance in Wistar Han rat at 1 umol/kg, iv administered as bolus dose by LC-MS/MS analysis; type: ADME, organism-based; details: in vivo
[3] = Volume of distribution at steady state in Wistar Han rat at 1 umol/kg, iv administered as bolus dose by LC-MS/MS analysis; type: ADME, organism-based; details: in vivo, read-out: Vdss
[4] = Apparent terminal half life in Wistar Han rat lung at 0.1 umol/kg, administered via intratracheal instillation by LC-MS/MS analysis; type: ADME, tissue-based; details: inhaled or intranasal, read-out: betat1/2(app) (converted)
[5] = Cmax in Wistar Han rat plasma at 0.1 umol/kg, administered via intratracheal instillation by LC-MS/MS analysis; type: ADME; set-up: dose 0.1 umol/kg; details: inhaled or intranasal
Lung [6] = assay: Drug uptake in Wistar Han rat lung at 0.1 umol/kg, administered via intratracheal instillation after 24 hrs by LC-MS/MS analysis; type: ADME, tissue-based; details: in vivo, inhaled_or_intranasal
[7] = Terminal half life in Wistar Han rat 1 umol/kg, iv administered as bolus dose by LC-MS/MS analysis; type: ADME, organism-based; details: in vivo, read-out: beta t1/2 (converted)
[8] = Mean residence time in Wistar Han rat lung at 0.1 umol/kg, administered via intratracheal instillation by LC-MS/MS analysis; type: ADME, tissue-based; details: inhaled or intranasal
[9] = Oral bioavailability in Wistar Han rat administered via gavage by LC-MS/MS analysis; type: ADME, organism-based; details: in vivo
[10] = AUC (0 to infinity) in Wistar Han rat lung at 0.1 umol/kg, administered via intratracheal instillation by LC-MS/MS analysis; type: ADME, tissue-based; set-up: dose 0.1 umol/kg, time infinity; details: inhaled or intranasal
[11] = Intrinsic clearance in human hepatocytes assessed per million cells; type: ADME, cell-based, Hepatocyte; details: read-out: CLH
[12] = Lipophilicity, log D of the compound by chromatography; type: physicochemical
[13] = Intrinsic clearance in Wistar Han rat hepatocytes assessed per 10^6 cells; type: ADME, cell-based, Hepatocyte; details: read-out: CLH

C[C@H](NC(=O)C(C)(F)F)[C@H](Oc1ccc2c(cnn2-c2ccc(F)cc2)c1)c1ccc2c(c1)OCCO2
Drug uptake (Lung [1]): 4.5 %ID | clearance [2]: 42 mL/min/kg | Vd [3]: 10 L/kg | half-life [4]: 8.9 h | Cmax [5]: 30 nM | Drug uptake (Lung [6]): 0.8 %ID | half-life [7]: 7.4 h | MRT [8]: 8.8 h | bioavailability [9]: 11% | AUC(0-inf) [10]: 12 µM·h | hepatocyte CLint [11]: 28 µL/min/1e6 cells | chromatographic logD [12]: 5.5 | hepatocyte CLint [13]: 22 µL/min/1e6 cells
